Reference: the supplement of paper PMC8967900

Tests used:
Assay in all cases: selective drug sensitivity score (sDSS, relative to normal bone marrow) (sDSS (score)); higher = more potent and effective on the cell line relative to normal bone marrow cells
Settings in all cases: 72 h
P30-OHKUBO = system: P30-OHKUBO
COG-LL-332h = system: COG-LL-332h
KASUMI-10 = system: KASUMI-10
COG-LL-355h = system: COG-LL-355h
NALL-1 = system: NALL-1
NALM-16 = system: NALM-16
DND-41 = system: DND-41
NALM-6 = system: NALM-6
KARPAS-45 = system: KARPAS-45
RPMI-8402 = system: RPMI-8402
MOLT-14 = system: MOLT-14
P12-ICHIKAWA = system: P12-ICHIKAWA
MN-60 = system: MN-60
COG-LL-319h = system: COG-LL-319h
KOPN-8 = system: KOPN-8
CCRF-CEM = system: CCRF-CEM
KASUMI-9 = system: KASUMI-9
MHH-CALL-3 = system: MHH-CALL-3
697 = system: 697
MHH-CALL-4 = system: MHH-CALL-4
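Also: ALL cell lines in 384-well plates, five doses spanning 10,000-fold, each plate scaled between vehicle and 100 µmol/L benzalkonium chloride controls, sDSS an adapted area-under-curve metric.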

Row | SMILES | selective drug sensitivity score (P30-OHKUBO) | selective drug sensitivity score (COG-LL-332h) | selective drug sensitivity score (KASUMI-10) | selective drug sensitivity score (COG-LL-355h) | selective drug sensitivity score (NALL-1) | selective drug sensitivity score (NALM-16) | selective drug sensitivity score (DND-41) | selective drug sensitivity score (NALM-6) | selective drug sensitivity score (KARPAS-45) | selective drug sensitivity score (RPMI-8402) | selective drug sensitivity score (MOLT-14) | selective drug sensitivity score (P12-ICHIKAWA) | selective drug sensitivity score (MN-60) | selective drug sensitivity score (COG-LL-319h) | selective drug sensitivity score (KOPN-8) | selective drug sensitivity score (CCRF-CEM) | selective drug sensitivity score (KASUMI-9) | selective drug sensitivity score (MHH-CALL-3) | selective drug sensitivity score 697 | selective drug sensitivity score (MHH-CALL-4)
1 | CC[C@H](C)C(=O)O[C@H]1C[C@H](O)C=C2C=C[C@H](C)[C@H](CC[C@@H](O)C[C@@H](O)CC(=O)O)[C@H]21 [Pravastatin] (top concentration 10000 nM) | -0.66 | -0.66 | -0.66 | -0.56 | -0.66 | -0.66 | -0.66 | -0.66 | -0.66 | -0.66 | -0.16 | -0.66 | -0.66 | 0.64 | -0.66 | -0.46 | -0.66 | 0.74 | -0.66 | -0.66
2 | Oc1ccc2c(c1)CC[C@H](c1ccccc1)[C@@H]2c1ccc(OCCN2CCCC2)cc1 [Lasofoxifene] (top concentration 1000 nM) | -1.28 | -1.28 | -1.28 | -1.28 | -1.28 | -1.28 | -1.28 | -1.28 | -1.28 | -1.28 | -1.28 | -1.28 | -1.28 | 2.62 | -1.28 | -1.08 | -1.28 | -1.28 | -1.28 | -1.28
3 | O=C1CN2Cc3c(ccc(Cl)c3Cl)N=C2N1 [Anagrelide] (top concentration 10000 nM) | 0 | 0 | 0 | 4.6 | 1.1 | 0 | 0 | 0 | 0 | 0 | 0 | 0 | 0 | 0 | 3.4 | 0 | 0 | 0 | 0 | 0.6
4 | CC1=C2C[C@H]3[C@@H](CC[C@@H]4C[C@H](NS(C)(=O)=O)CC[C@@]43C)[C@@H]2CC[C@@]2(C1)O[C@@H]1C[C@H](C)CN[C@H]1[C@H]2C [Saridegib] (top concentration 10000 nM) | -0.66 | -0.06 | -1.16 | -0.96 | -0.26 | 0.04 | 4.74 | -1.16 | 3.44 | 0.54 | 1.04 | -0.06 | -1.16 | -0.06 | -1.16 | -0.46 | -0.06 | 0.34 | 1.24 | 3.14
5 | CCN(CC)CCN(Cc1ccc(-c2ccc(C(F)(F)F)cc2)cc1)C(=O)Cn1c(SCc2ccc(F)cc2)nc(=O)c2c1CCC2 [Darapladib] (top concentration 1000 nM) | 0.68 | -0.92 | -1.22 | -1.42 | 6.18 | -0.52 | -0.72 | -1.42 | -1.32 | -1.32 | -1.42 | -1.42 | -1.42 | -1.42 | 7.18 | -1.42 | -1.32 | -1.42 | -1.42 | 2.68
6 | COc1cc2ncnc(Nc3ccc(F)c(Cl)c3)c2cc1NC(=O)/C=C/CN1CCCCC1 [Dacomitinib] (top concentration 1000 nM) | 0.96 | -0.84 | -0.54 | 1.06 | -1.64 | -1.54 | -1.04 | -1.64 | 0.36 | -0.34 | 0.86 | -1.44 | -1.64 | -1.24 | -0.34 | 0.26 | 0.96 | 2.06 | -0.34 | 1.86
7 | CC(C)C(=O)Nc1ccc([N+](=O)[O-])c(C(F)(F)F)c1 [Flutamide] (top concentration 10000 nM) | 0.94 | -0.56 | -0.56 | -0.56 | 8.04 | -0.56 | -0.16 | -0.46 | 0.74 | 0.74 | -0.56 | 0.74 | -0.56 | -0.56 | 4.24 | -0.16 | 1.64 | -0.56 | 1.94 | 1.24
8 | CC#CC(=O)N1CCC[C@H]1c1nc(-c2ccc(C(=O)Nc3ccccn3)cc2)c2c(N)nccn12 [Acalabrutinib] (top concentration 1000 nM) | 1.3 | -0.1 | 1.8 | -0.1 | -0.1 | -0.1 | -0.1 | -0.1 | 0.7 | -0.1 | -0.1 | -0.1 | -0.1 | 0 | -0.1 | 0.8 | 1.2 | 0 | 0.8 | 7.4
9 | Cn1nnc2c(C(N)=O)ncn2c1=O [Temozolomide] (top concentration 100000 nM) | 3.36 | -0.04 | -0.04 | -0.04 | -0.04 | -0.04 | -0.04 | 2.26 | 5.76 | 1.46 | 3.36 | 4.96 | -0.04 | -0.04 | -0.04 | 7.16 | 6.16 | 4.76 | 3.76 | -0.04
10 | COc1cc2c(Oc3ccc4[nH]c(C)cc4c3F)ncnc2cc1OCCCN1CCCC1 [Cediranib] (top concentration 1000 nM) | 2.7 | 0 | 0 | 0 | 0 | 0 | 0 | 0 | 0.2 | 0 | 0 | 0 | 0 | 0 | 0 | 0.1 | 3.6 | 0 | 0.9 | 0
11 | N#Cc1ccnc(N2C(=O)CC[C@H]2C(=O)N(c2cncc(F)c2)[C@H](C(=O)NC2CC(F)(F)C2)c2ccccc2Cl)c1 [Ivosidenib] (top concentration 10000 nM) | 1.1 | 1 | 0 | 0 | 0 | 0 | 0 | 0 | 0.5 | 0.8 | 0.1 | 1 | 0 | 0 | 0.2 | 1 | 0.9 | 0 | 0.1 | 0
12 | Cc1cc(-c2ncc(CC(=O)Nc3ccc(-c4cnccn4)cn3)cc2C)ccn1 [NVP-LGK974] (top concentration 10000 nM) | 2.1 | 0.5 | 0.8 | 3.3 | 1.5 | 0.7 | 1.3 | 3.7 | 4.6 | 4.9 | 1 | 3.2 | 4.7 | -1.3 | 2.6 | -0.5 | 0.1 | 2 | 5.6 | 3.5
13 | Cc1c(Cn2c(C)nc3c(C(=O)O)cc(N4CCOCC4)cc32)cccc1C(F)(F)F (top concentration 10000 nM) | 2.38 | 0.98 | -0.02 | 1.98 | 0.68 | -0.02 | 1.78 | -0.02 | 0.08 | -0.02 | 0.38 | -0.02 | -0.02 | -0.02 | 0.38 | 0.38 | 1.08 | -0.02 | 1.28 | 0.58
14 | Cc1ccc(F)c(NC(=O)Nc2ccc(-c3cccc4[nH]nc(N)c34)cc2)c1 [Linifanib] (top concentration 1000 nM) | -1.12 | -1.12 | 6.08 | -1.12 | -1.12 | -1.12 | -0.02 | -1.12 | -1.12 | -1.12 | -1.12 | -1.12 | -1.12 | -1.12 | -1.12 | -1.02 | -1.12 | -1.12 | -1.12 | -1.12
15 | C=CC(=O)N1CCC(Oc2cc3c(Nc4ccc(Cl)c(Cl)c4F)ncnc3cc2OC)CC1 [Poziotinib] (top concentration 1000 nM) | -0.22 | 1.48 | -0.22 | -0.22 | 3.28 | -0.22 | 2.08 | -0.22 | -0.22 | -0.22 | 0.78 | -0.22 | -0.22 | 3.98 | -0.22 | -0.22 | 0.98 | 3.08 | -0.22 | 0.68
16 | CCOCc1nc2c(N)nc3ccccc3c2n1CC(C)(C)O [Resiquimod] (top concentration 10000 nM) | -2.82 | -4.72 | -2.72 | -4.92 | -4.92 | -4.92 | -4.92 | -4.42 | -4.92 | -4.92 | -4.92 | -4.92 | -1.82 | 5.68 | -4.92 | -4.92 | -4.92 | -4.82 | -4.62 | -4.92
17 | CNC(=O)c1cccc2cc(Oc3ccnc4cc(OCC5(N)CC5)c(OC)cc34)ccc12 [Lucitanib] (top concentration 10000 nM) | 5.88 | 2.88 | 5.18 | -0.62 | 0.58 | -0.62 | 5.08 | 1.58 | 3.18 | 1.88 | 2.28 | 1.28 | -0.62 | 1.98 | 6.38 | 3.08 | 6.28 | -0.62 | 5.48 | -0.62
18 | COc1cc(Br)c(Nc2nc(-c3c(C)nc4ncccn34)cs2)c(Br)c1 [PTC-209] (top concentration 10000 nM) | 4.52 | -1.08 | 0.92 | -0.38 | -1.78 | -2.38 | -1.18 | 2.22 | 0.02 | 1.02 | -0.88 | 0.42 | 0.42 | 4.12 | 4.82 | 0.52 | 1.92 | -5.08 | 5.62 | -2.68
